Columns and labels:
[1] = test system: thioredoxin reductase (TrxR); settings: donor
Procedure: A volume corresponding to 50 μg of proteins of each cell extract is incubated with a mixture of HEPES, 80 mM pH 7.5, 0.9 mg/ml of NADPH, EDTA 6 mM, 2 mg/ml of insulin and 10 μM of Trx of E. coli, at 37° C. for 20 minutes in a final volume of 120 μL. The reaction is stopped by the addition of 500 μL of DTNB (dithio-bis-nitrobenzoic acid) (0.4 mg/ml) in guanidine hydrochloride 6 M/Tris-Cl 0.2 M (pH 8.0). A control sample containing everything except the Trx is incubated and treated in the same way as each sample.
The absorbance at 412 nm is measured and the value of the control subtracted from the value of the corresponding absorbance of the sample.
A standard curve is prepared using TrxR from purified calf thymus, with a defined specific activity.

thioredoxin = settings: donor; NAC (10 mM) alone
glycated proteins = test: Reduction in glycated proteins in treated cells; type: cell-based

In the case of `C=CC=O` [Acrolein], the “TrxR activity, % change vs control” value ([1]; Acrolein 25 μM alone) is reported as −37% and the “TrxR Activity” value ([1]; Acrolein 25 μM in the culture medium, alone) is reported as 130.8 ± 11.4 ng of TrxR/mg of total proteins.

For `CC(=O)N[C@@H](CS)C(=O)O` [NAC, N-Acetyl-cysteine], the “Thioredoxin Level” value (thioredoxin) was 59.8 ± 8.1 ng of Trx/mg of total proteins and the “Thioredoxin level, % change vs control” value (thioredoxin) was −32%.

With `COc1cc(/C=C/C(=O)O)ccc1O` [arginine ferulate] the “content required to inhibit 50% of the formation of glycated proteins in the cells” value (glycated proteins) was 0.005%-0.02%.

— patent US8017128B2, “Cosmetic active ingredient composed of arginine ferrulate and a microalgae extract and its uses” (priority 2006, dated 2011)
